Assay [1] concerns the target T1, 20S Human Erythrocyte Proteasome (HEP) (Homo sapiens, UniProt P20618+P28074).
T1 construct: 20S Human Erythrocyte Proteasome (HEP), purchased from Immatics Biotechnologies Inc; purchased Immatics Biotechnologies Inc., Tübingen, Germany; host or cells: human erythrocytes (natural source)
The experiment in a line: Chymotrypsin-like activity of 20S Human Erythrocyte Proteasome (HEP), IC50 determination. Type of assay: biochemical. The note with it: assay of Example C, inhibition of HEP. The essentials: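 20S proteasome at 0.2 μg/mL (about 0.6 nM catalytic sites) in 20 mM Tris with 0.04% SDS, preincubated 15 min at 37° C with inhibitor before Suc-LLVY-AMC (100 μM final). AMC fluorescence read in the linear range; triplicates, IC50 from concentration series.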

For assay [2], the target named is T2, proteasome in Molt-4 cells (human leukemia) (Homo sapiens, UniProt P20618+P28074).
T2 sequence (P28074 60-263): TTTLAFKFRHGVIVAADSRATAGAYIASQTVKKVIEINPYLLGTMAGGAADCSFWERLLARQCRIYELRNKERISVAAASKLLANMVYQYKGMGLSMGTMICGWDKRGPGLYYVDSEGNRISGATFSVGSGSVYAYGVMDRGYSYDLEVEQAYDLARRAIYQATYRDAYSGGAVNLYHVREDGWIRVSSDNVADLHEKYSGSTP
T2 sequence (P20618 29-241): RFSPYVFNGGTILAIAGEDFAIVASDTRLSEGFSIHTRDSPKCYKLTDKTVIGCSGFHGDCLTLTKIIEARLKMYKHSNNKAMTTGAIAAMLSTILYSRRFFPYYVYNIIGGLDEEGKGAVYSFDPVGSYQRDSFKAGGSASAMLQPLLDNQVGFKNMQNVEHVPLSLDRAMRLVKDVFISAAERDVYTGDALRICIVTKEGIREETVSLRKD
Type of assay: cell-based. The method in brief:
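Intact Molt-4 cells (6×10^6 cells/mL) in HEPES-buffered saline were preincubated with inhibitor 15 min at 37 °C, then given cell-permeable MeOSuc-FLF-AFC at 25 μM final.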

The mark [3] stands for this setting: assay of Example E, inhibition of MOLT4; read-out: MOLT4 (EC50).

Structures can show the parent of a compound that is named as a salt. Where two headings read alike, the source gives them in different places.

For 24 compounds, IC50 and EC50 results are on record in US8546608B2, “Proteasome inhibitors and methods of using the same” (Cephalon, Inc., priority 2003, dated 2013).

For the compound `Cc1ccc(/C=C/C(=O)N[C@@H](CCCNC(=N)N[N+](=O)[O-])C(=O)N[C@@H](CC(C)C)B(O)O)cc1` [E.2.60, Boronic acid, [(1R)-1-[[(2S)-5-[[imino(nitroamino)methyl]amino]-2-[[3-(4-methylphenyl)acryl]amino]-1-oxopentyl]amino]-3-methylbutyl]], the IC50 in assay [1] is less than 10 nM. Also, in assay [2] (setting [3]), the concentration giving a half-maximal response (EC50) lay within 2000 to 10000 nM.
In turn, `COc1ccc(CCCC(=O)N[C@@H](CCCNC(=N)N[N+](=O)[O-])C(=O)N[C@@H](CC(C)C)B(O)O)cc1` [E.2.61, Boronic acid, [(1R)-1-[[(2S)-5-[[imino(nitroamino)methyl]amino]-2-[[4-(4-methoxyphenyl)-butanoyl]amino]-1-oxopentyl]amino]-3-methylbutyl]] returned an IC50 in assay [1] of less than 10 nM. In addition, the 50% effective concentration (EC50) in assay [2] (setting [3]) fell in the range of 2000 to 10000 nM.
In assay [1], `CC(C)C[C@H](NC(=O)[C@H](CCCNC(=N)N[N+](=O)[O-])NC(=O)Cc1ccsc1)B(O)O` [E.2.62, Boronic acid, [(1R)-1-[[(2S)-5-[[imino(nitroamino)methyl]amino]-2-[(2-thiophen-3-yl-acetyl)amino]-1-oxopentyl]amino]-3-methylbutyl]] came in with a half-maximal inhibitory concentration (IC50) of less than 10 nM. Also, the EC50 in assay [2] (setting [3]) was more than 10000 nM.
`CC(C)C[C@H](NC(=O)[C@H](CCCNC(=N)N[N+](=O)[O-])NC(=O)CCCC(=O)c1ccsc1)B(O)O` [E.2.64, Boronic acid, [(1R)-1-[[(2S)-5-[[imino(nitroamino)methyl]amino]-2-[[5-oxo-5-(thiophen-3-yl)pentanoyl]amino]-1-oxopentyl]amino]-3-methylbutyl]]: in assay [1], the IC50 was less than 10 nM. The EC50 in assay [2] (setting [3]) was more than 10000 nM.
For the compound `CC(=O)N[C@@H](CCCNC(=N)N[N+](=O)[O-])C(=O)N[C@@H](CC(C)C)B(O)O` [E.2.65, Boronic acid, [(1R)-1-[[(2S)-5-[[imino(nitroamino)methyl]amino]-2-[(acetyl)amino]-1-oxopentyl]amino]-3-methylbutyl]], in assay [1], the IC50 is less than 100 nM. Also, the concentration for a half-maximal effect (EC50) in assay [2] (setting [3]) was more than 10000 nM.
On the same counts, the results for `CCSCC(=O)N[C@@H](CCCNC(=N)N[N+](=O)[O-])C(=O)N[C@@H](CC(C)C)B(O)O` [E.2.66, Boronic acid, [(1R)-1-[[(2S)-5-[[imino(nitroamino)methyl]amino]-2-[(2-ethylsulfanylacetyl)amino]-1-oxopentyl]amino]-3-methylbutyl]] are less than 10 nM and more than 10000 nM.
For the compound `CC(C)C[C@H](NC(=O)[C@H](CCCNC(=N)N[N+](=O)[O-])NC(=O)CCCCCCCCCO)B(O)O` [E.2.67, Boronic acid, [(1R)-1-[[(2S)-5-[[imino(nitroamino)methyl]amino]-2-[(10-hydroxydecanoyl)amino]-1-oxopentyl]amino]-3-methylbutyl]], the 50% inhibitory concentration (IC50) in assay [1] was less than 10 nM. Also, the concentration giving a half-maximal response (EC50) in assay [2] (setting [3]) lay in the range of 2000 to 10000 nM.
As for `CSCC(=O)N[C@@H](CCCNC(=N)N[N+](=O)[O-])C(=O)N[C@@H](CC(C)C)B(O)O` [E.2.68, Boronic acid, [(1R)-1-[[(2S)-5-[[imino(nitroamino)methyl]amino]-2-[(2-methylsulfanylacetyl)amino]-1-oxopentyl]amino]-3-methylbutyl]], the half-maximal inhibitory concentration (IC50) in assay [1] was less than 10 nM. Also, the concentration giving a half-maximal response (EC50) in assay [2] (setting [3]) was more than 10000 nM.
The compound `CC(C)C[C@H](NC(=O)[C@H](CCCNC(=N)N[N+](=O)[O-])NC(=O)CCS(=O)(=O)c1ccccc1)B(O)O` [E.2.70, Boronic acid, [(1R)-1-[[(2S)-5-[[imino(nitroamino)methyl]amino]-2-[[3-(benzenesulfonyl)propanoyl]amino]-1-oxopentyl]amino]-3-methylbutyl]] returned a half-maximal inhibitory concentration (IC50) in assay [1] of less than 10 nM. Further, the EC50 in assay [2] (setting [3]) was more than 10000 nM.
As for `CC(=O)NCCCCCC(=O)N[C@@H](CCCNC(=N)N[N+](=O)[O-])C(=O)N[C@@H](CC(C)C)B(O)O` [E.2.75, Boronic acid, [(1R)-1-[[(2S)-5-[[imino(nitroamino)methyl]amino]-2-[[6-(acetylamino)hexanoyl]amino]-1-oxopentyl]amino]-3-methylbutyl]], the concentration for half-maximal inhibition (IC50) in assay [1] was less than 10 nM. Further, the 50% effective concentration (EC50) in assay [2] (setting [3]) is more than 10000 nM.
Compound `CC(C)C[C@H](NC(=O)[C@H](CCCNC(=N)N[N+](=O)[O-])NC(=O)COc1ccc(Br)cc1)B(O)O` [E.2.77, Boronic acid, [(1R)-1-[[(2S)-5-[[imino(nitroamino)methyl]amino]-2-[[2-(4-bromophenoxy)acetyl]amino]-1-oxopentyl]amino]-3-methylbutyl]] displayed an IC50 in assay [1] of less than 10 nM. For the same compound, the concentration for a half-maximal effect (EC50) in assay [2] (setting [3]) was in the range of 2000 to 10000 nM.
In turn, `CCc1ccc(CCC(=O)N[C@@H](CCCNC(=N)N[N+](=O)[O-])C(=O)N[C@@H](CC(C)C)B(O)O)cc1` [E.2.78, Boronic acid, [(1R)-1-[[(2S)-5-[[imino(nitroamino)methyl]amino]-2-[[3-(4-ethylphenyl)propanoyl]amino]-1-oxopentyl]amino]-3-methylbutyl]] came in with a 50% inhibitory concentration (IC50) in assay [1] of less than 10 nM. Also, the EC50 in assay [2] (setting [3]) lay within 2000 to 10000 nM.
For the compound `CCCCCCCOc1ccc(NC(=O)N[C@@H](CCCNC(=N)N[N+](=O)[O-])C(=O)N[C@@H](CC(C)C)B(O)O)cc1` [E.2.79, Boronic acid, [(1R)-1-[[(2S)-5-[[imino(nitroamino)methyl]amino]-2-[3-[4-(heptyloxy)phenyl]-ureido]-1-oxopentyl]amino]-3-methylbutyl]], the IC50 in assay [1] was less than 10 nM. For the same compound, in assay [2] (setting [3]), the EC50 was in the range of 200 to 2000 nM.
Take `CC(=O)CCCC(=O)N[C@@H](CCCNC(=N)N[N+](=O)[O-])C(=O)N[C@@H](CC(C)C)B(O)O` [E.2.80, Boronic acid, [(1R)-1-[[(2S)-5-[[imino(nitroamino)methyl]amino]-2-[(5-oxohexanoyl)amino]-1-oxopentyl]amino]-3-methylbutyl]]: the IC50 in assay [1] was less than 100 nM. Further, the EC50 in assay [2] (setting [3]) fell in the range of 2000 to 10000 nM.
Regarding `CCCCc1ccc(C(=O)N[C@H](C(=O)N[C@@H](CC(C)C)B(O)O)[C@@H](C)O)cc1` [E.3, Boronic Acid, [(1R)-1-[[(2S,3R)-3-hydroxy-2-[(4-butylbenzoyl)amino]-1-oxobutyl]amino]-3-methylbutyl]], in assay [1], the IC50 is less than 10 nM. In assay [2] (setting [3]), the EC50 was less than 200 nM.
As for `CC(C)C[C@H](NC(=O)[C@@H](NC(=O)c1ccc2ccccc2c1)[C@@H](C)O)B(O)O` [E.3.1, Boronic acid, [(1R)-1-[[(2S,3R)-3-hydroxy-2-[(2-naphthoyl)amino]-1-oxobutyl]amino]-3-methylbutyl]], the 50% inhibitory concentration (IC50) in assay [1] was less than 10 nM. Also, in assay [2] (setting [3]), the concentration giving a half-maximal response (EC50) is less than 200 nM.
In the case of `Cc1ccc(OCC(=O)N[C@H](C(=O)N[C@@H](CC(C)C)B(O)O)[C@@H](C)O)cc1` [E.3.2], the half-inhibitory concentration (IC50) in assay [1] was less than 10 nM. Also, the concentration for a half-maximal effect (EC50) in assay [2] (setting [3]) is less than 200 nM.
As for `CC(C)C[C@H](NC(=O)[C@@H](NS(=O)(=O)c1ccc2ccccc2c1)[C@@H](C)O)B(O)O` [E.3.4, Boronic acid, [(1R)-1-[[(2S,3R)-3-hydroxy-2-[(naphthalene-2-sulfonyl)amino]-1-oxobutyl]amino]-3-methylbutyl]], in assay [1], the half-inhibitory concentration (IC50) is less than 100 nM. Also, the concentration giving a half-maximal response (EC50) in assay [2] (setting [3]) was less than 200 nM.
On to `CCCCCCCCC(C)(C)C(=O)N[C@H](C(=O)N[C@@H](CC(C)C)B(O)O)[C@@H](C)O` [E.3.6, Boronic acid, [(1R)-1-[[(2S,3R)-3-hydroxy-2-[(2,2 dimethyl-decanoyl)amino]-1-oxobutyl]amino]-3-methylbutyl]], for which, in assay [1], the 50% inhibitory concentration (IC50) was less than 10 nM. In addition, in assay [2] (setting [3]), the EC50 was less than 200 nM.
In assay [1], `CC(C)C[C@H](NC(=O)[C@@H](NC(=O)c1ccc(Oc2ccccc2)cc1)[C@@H](C)O)B(O)O` [E.3.7, Boronic acid, [(1R)-1-[[(2S,3R)-3-hydroxy-2-[(4-Phenoxybenzoyl)amino]-1-oxobutyl]amino]-3-methylbutyl]] displayed a half-inhibitory concentration (IC50) of less than 10 nM. Also, the EC50 in assay [2] (setting [3]) is less than 200 nM.
As for `CCCOc1ccc(C(=O)N[C@H](C(=O)N[C@@H](CC(C)C)B(O)O)[C@@H](C)O)cc1` [E.3.8], the concentration for half-maximal inhibition (IC50) in assay [1] is less than 10 nM. The 50% effective concentration (EC50) in assay [2] (setting [3]) is less than 200 nM.
In assay [1], `CC(C)C[C@H](NC(=O)[C@@H](NC(=O)c1cccc(-c2cccnc2)c1)[C@@H](C)O)B(O)O` [E.3.9, Boronic acid, [(1R)-1-[[(2S,3R)-3-hydroxy-2-[(3-pyridin-3-yl-benzoyl)amino]-1-oxobutyl]amino]-3-methylbutyl], hydrochloride salt] had a half-maximal inhibitory concentration (IC50) of less than 10 nM. For the same compound, in assay [2] (read-out: MOLT4 (EC50); assay of Example E, inhibition of MOLT4), the EC50 is less than 200 nM.
Regarding `CCCOc1cccc(C(=O)N[C@H](C(=O)N[C@@H](CC(C)C)B(O)O)[C@@H](C)O)c1` [E.3.10, Boronic acid, [(1R)-1-[[(2S,3R)-3-hydroxy-2-[(3-propoxy-benzoyl)amino]-1-oxobutyl]amino]-3-methylbutyl]], the 50% inhibitory concentration (IC50) in assay [1] was less than 10 nM. In addition, in assay [2] (setting [3]), the 50% effective concentration (EC50) was less than 200 nM.
As for `CC(C)C[C@H](NC(=O)[C@@H](NC(=O)c1ccc(-c2cccnc2)cc1)[C@@H](C)O)B(O)O` [E.4, Boronic Acid, [(1R)-1-[[(2S,3R)-3-hydroxy-2-[[4-(3-pyridyl)benzoyl]amino]-1-oxobutyl]amino]-3-methylbutyl]], in assay [1], the IC50 was less than 10 nM. Further, in assay [2] (setting [3]), the EC50 was less than 200 nM.

For orientation: IC50 means the concentration needed to halve the response being measured. A lower IC50 goes with inhibition by little substance. In general, EC50 refers to the concentration needed to bring the measured effect to its halfway point.
